According to ChEMBL document CHEMBL3885861, “Open TG-GATES”:

Species: Rattus norvegicus
Assay: Open TG-GATES - Regimen: Single
Format: toxicity, organism-based, Sprague-Dawley
Parameters: regimen Single, gender Male, age 6 weeks
Conditions: in vivo, po, 30 mg/kg, route gavage, dose level Low; for APTT / Bas / Eos / Fbg / Hb / Ht / Lym / MCH / MCHC / MCV / Mono / Neu / PT / Plat / RBC / Ret / WBC: tissue Blood; for KIDNEY_L / KIDNEY_R / KIDNEY_TOTAL: tissue Kidney; for LIVER: tissue Liver; for A/G / ALP / ALT / AST / BUN / CRE / Ca / Cl / DBIL / GLC / IP / K / LDH / Na / PL / RALB / TBIL / TC / TG / TP / gamma-GTP: tissue Plasma

C[C@]12CCC(=O)C=C1CC[C@@H]1[C@@H]2CC[C@@]2(C)[C@H]1CC[C@]2(C)O [METHYLTESTOSTERONE]
TERMINAL_BW (3 h): 203.4 g | APTT (3 h): 15.6 s | Bas (3 h): 0% | Eos (3 h): 1% | Fbg (3 h): 292.4 mg/dL | Hb (3 h): 12.7 g/dL | Ht (3 h): 37.1% | Lym (3 h): 77% | MCH (3 h): 21.2 pg | MCHC (3 h): 34.2% | MCV (3 h): 61.9 fL | Mono (3 h): 3.8% | Neu (3 h): 17% | PT (3 h): 13.1 s | Plat (3 h): 105.6 x10_4/uL | RBC (3 h): 599 x10_4/ul | Ret (3 h): 8.5% | WBC (3 h): 69.9 x10_2/uL | KIDNEY_L (3 h): 0.9 g | KIDNEY_R (3 h): 0.9 g | KIDNEY_TOTAL (3 h): 1.8 g | LIVER (3 h): 8.6 g | A/G (3 h): 0.9 | ALP (3 h): 1715.8 IU/L | ALT (3 h): 48.8 IU/L | AST (3 h): 82.6 IU/L | BUN (3 h): 9.8 mg/dL | CRE (3 h): 0.2 mg/dL | Ca (3 h): 11 mg/dL | Cl (3 h): 106 meq/L | DBIL (3 h): 0.012 mg/dL | GLC (3 h): 181.8 mg/dL | IP (3 h): 9.1 mg/dL | K (3 h): 4.4 meq/L | LDH (3 h): 76.6 IU/L | Na (3 h): 141.4 meq/L | PL (3 h): 131 mg/dL | RALB (3 h): 2.5 g/dL | TBIL (3 h): 0.048 mg/dL | TC (3 h): 72.8 mg/dL | TG (3 h): 41.8 mg/dL | TP (3 h): 5.4 g/dL | gamma-GTP (3 h): 1 IU/L | TERMINAL_BW (6 h): 202.1 g | APTT (6 h): 17 s | Bas (6 h): 0.2% | Eos (6 h): 1% | Fbg (6 h): 281 mg/dL | Hb (6 h): 13.2 g/dL | Ht (6 h): 38.6% | Lym (6 h): 74.8% | MCH (6 h): 21.4 pg | MCHC (6 h): 34.1% | MCV (6 h): 62.9 fL | Mono (6 h): 3% | Neu (6 h): 20.8% | PT (6 h): 13.3 s | Plat (6 h): 112.5 x10_4/uL | RBC (6 h): 614.8 x10_4/ul | Ret (6 h): 8.1% | WBC (6 h): 69.8 x10_2/uL | KIDNEY_L (6 h): 0.9 g | KIDNEY_R (6 h): 0.9 g | KIDNEY_TOTAL (6 h): 1.8 g | LIVER (6 h): 8 g | A/G (6 h): 0.9 | ALP (6 h): 1451.8 IU/L | ALT (6 h): 44.8 IU/L | AST (6 h): 77.4 IU/L | BUN (6 h): 9.4 mg/dL | CRE (6 h): 0.2 mg/dL | Ca (6 h): 10.7 mg/dL | Cl (6 h): 107.2 meq/L | DBIL (6 h): 0.01 mg/dL | GLC (6 h): 181 mg/dL | IP (6 h): 10 mg/dL | K (6 h): 4.2 meq/L | LDH (6 h): 68.2 IU/L | Na (6 h): 142.2 meq/L | PL (6 h): 120.8 mg/dL | RALB (6 h): 2.6 g/dL | TBIL (6 h): 0.042 mg/dL | TC (6 h): 70.6 mg/dL | TG (6 h): 32.8 mg/dL | TP (6 h): 5.4 g/dL | gamma-GTP (6 h): 1.2 IU/L | TERMINAL_BW (9 h): 203.1 g | APTT (9 h): 16.9 s | Bas (9 h): 0% | Eos (9 h): 1% | Fbg (9 h): 287.4 mg/dL | Hb (9 h): 13.2 g/dL | Ht (9 h): 38.3% | Lym (9 h): 77.2% | MCH (9 h): 21.4 pg | MCHC (9 h): 34.6% | MCV (9 h): 61.7 fL | Mono (9 h): 2.6% | Neu (9 h): 18.4% | PT (9 h): 13.3 s | Plat (9 h): 113.2 x10_4/uL | RBC (9 h): 620.8 x10_4/ul | Ret (9 h): 8.2% | WBC (9 h): 66.5 x10_2/uL | KIDNEY_L (9 h): 0.9 g | KIDNEY_R (9 h): 0.9 g | KIDNEY_TOTAL (9 h): 1.7 g | LIVER (9 h): 7.8 g | A/G (9 h): 0.9 | ALP (9 h): 1527.6 IU/L | ALT (9 h): 39.2 IU/L | AST (9 h): 74.6 IU/L | BUN (9 h): 8.8 mg/dL | CRE (9 h): 0.2 mg/dL | Ca (9 h): 10.6 mg/dL | Cl (9 h): 107.6 meq/L | DBIL (9 h): 0.01 mg/dL | GLC (9 h): 185.2 mg/dL | IP (9 h): 10.9 mg/dL | K (9 h): 3.9 meq/L | LDH (9 h): 65.6 IU/L | Na (9 h): 142.8 meq/L | PL (9 h): 120 mg/dL | RALB (9 h): 2.6 g/dL | TBIL (9 h): 0.054 mg/dL | TC (9 h): 68.4 mg/dL | TG (9 h): 26 mg/dL | TP (9 h): 5.4 g/dL | gamma-GTP (9 h): 1.6 IU/L | TERMINAL_BW (24 h): 208 g | APTT (24 h): 19.7 s | Bas (24 h): 0% | Eos (24 h): 0.8% | Fbg (24 h): 277 mg/dL | Hb (24 h): 13 g/dL | Ht (24 h): 37.9% | Lym (24 h): 77% | MCH (24 h): 21 pg | MCHC (24 h): 34.2% | MCV (24 h): 61.3 fL | Mono (24 h): 2.8% | Neu (24 h): 19% | PT (24 h): 13.1 s | Plat (24 h): 120.3 x10_4/uL | RBC (24 h): 619.4 x10_4/ul | Ret (24 h): 7.5% | WBC (24 h): 80.6 x10_2/uL | KIDNEY_L (24 h): 0.9 g | KIDNEY_R (24 h): 0.9 g | KIDNEY_TOTAL (24 h): 1.8 g | LIVER (24 h): 9.4 g | A/G (24 h): 0.9 | ALP (24 h): 1796.2 IU/L | ALT (24 h): 55.8 IU/L | AST (24 h): 81.2 IU/L | BUN (24 h): 13.8 mg/dL | CRE (24 h): 0.2 mg/dL | Ca (24 h): 11.1 mg/dL | Cl (24 h): 106.8 meq/L | DBIL (24 h): 0.016 mg/dL | GLC (24 h): 184.6 mg/dL | IP (24 h): 8.3 mg/dL | K (24 h): 4.1 meq/L | LDH (24 h): 82 IU/L | Na (24 h): 141.4 meq/L | PL (24 h): 134.2 mg/dL | RALB (24 h): 2.7 g/dL | TBIL (24 h): 0.028 mg/dL | TC (24 h): 68.2 mg/dL | TG (24 h): 84.2 mg/dL | TP (24 h): 5.7 g/dL | gamma-GTP (24 h): 1 IU/L
